Blank lines part the entries; values can stand above or below the compound they belong to. Activity calls are given as the source filed them. The calls are words filed in the database; no cut-off is given here.
Columns and labels:
[1] = molecular target: T1, Heat shock protein HSP 90-alpha (Homo sapiens, UniProt P07900); assay: Inhibition of 6x-His tagged human recombinant full length Hsp90alpha ATPase preincubated for 0.5 hrs followed by ATP addition measured after 30 mins by HTRF assay
MCF7 = assay: Antiproliferative activity against human MCF7 cells assessed as growth inhibition by MTT assay; format: functional, cell-based
[2] = molecular target: T2, Heat shock protein HSP90 (Homo sapiens) (UniProt P07900+P08238); assay: Inhibition of Hsp90 in HUVEC assessed as repression of 1% hypoxia-induced VEGF mRNA expression at 0.1 uM measured over 8 hrs by RT-PCR analysis; format: cell-based
SK-BR-3 [3] = assay: Induction of cell morphological changes in human SK-BR-3 cells assessed as cell membrane blebbing at 0.25 to 1 uM after 48 hrs by DAPI staining-based fluorescence analysis; format: functional
HUVEC [4] = assay: Antiangiogenic activity against HUVEC assessed as inhibition of VEGF-induced cell migration incubated for 24 hrs by wound healing assay; format: functional, cell-based; details: Homo sapiens
SK-BR-3 [5] = assay: Induction of apoptosis in human SK-BR-3 cells assessed as nuclear condensation at 0.25 to 1 uM after 48 hrs by DAPI staining-based fluorescence analysis; format: functional, cell-based
[6] = molecular target: T1, Heat shock protein HSP 90-alpha; assay: Binding affinity to human recombinant full length biotinylated Hsp90alpha assessed as equilibrium dissociation constants by biolayer interferometric analysis
SK-BR-3 [7] = assay: Induction of apoptosis in human SK-BR-3 cells assessed as live cells after 48 hrs by annexin v/PI-staining based flow cytometry (reference value: 89.2%); format: functional, cell-based
[8] = molecular target: T1, Heat shock protein HSP 90-alpha; assay: Binding affinity to human recombinant full length Hsp90alpha assessed as change in melting temperature at 500 uM by fluorescence assay
SK-BR-3 [9] = assay: Induction of apoptosis in human SK-BR-3 cells assessed as late apoptotic cells after 48 hrs by annexin v/PI-staining based flow cytometry (reference value: 6.2%); format: functional, cell-based
SK-BR-3 [10] = assay: Induction of apoptosis in human SK-BR-3 cells assessed as late apoptotic cells at 1 uM after 48 hrs by annexin v/PI-staining based flow cytometry (reference value: 6.2%); format: functional
[11] = molecular target: T1, Heat shock protein HSP 90-alpha; assay: Binding affinity to human recombinant full length Hsp90alpha assessed as change in melting temperature at 125 uM by fluorescence assay
SK-BR-3 [12] = assay: Induction of apoptosis in human SK-BR-3 cells assessed as dead cells at 0.25 uM after 48 hrs by annexin v/PI-staining based flow cytometry (Rvb =1.3%); format: functional
SK-BR-3 [13] = assay: Induction of cell morphological changes in human SK-BR-3 cells assessed as cell shrinkage at 0.25 to 1 uM after 48 hrs by DAPI staining-based fluorescence analysis; format: functional
HUVEC [14] = assay: Antiangiogenic activity against inactivated HUVEC assessed as inhibition of tube formation at 0.25 uM incubated for 6 hrs by matrigel assay; format: functional, cell-based; details: Homo sapiens
[15] = molecular target: T2, Heat shock protein HSP90 (Homo sapiens); assay: Inhibition of Hsp90 in HUVEC assessed as downregulation of 1% hypoxia-induced HIF-1alpha expression measured over 8 hrs by Western blot analysis; format: cell-based
SK-BR-3 [16] = assay: Induction of apoptosis in human SK-BR-3 cells assessed as apoptotic body formation at 0.25 to 1 uM after 48 hrs by DAPI staining-based fluorescence analysis; format: functional, cell-based
SK-BR-3 [17] = assay: Induction of apoptosis in human SK-BR-3 cells assessed as dead cells at 0.5 uM after 48 hrs by annexin v/PI-staining based flow cytometry (Rvb =1.3%); format: functional
[18] = molecular target: T2, Heat shock protein HSP90 (Homo sapiens); assay: Inhibition of Hsp90 in human SK-BR-3 cells assessed as downregulation of Akt after 24 hrs by Western blot analysis; format: cell-based
A549 = assay: Antiproliferative activity against human A549 cells assessed as growth inhibition by MTT assay; format: functional, cell-based
[19] = molecular target: T1, Heat shock protein HSP 90-alpha; assay: Binding affinity to human recombinant full length Hsp90alpha assessed as change in melting temperature at 250 uM by fluorescence assay
[20] = molecular target: T2, Heat shock protein HSP90 (Homo sapiens); assay: Inhibition of Hsp90 in HUVEC assessed as repression of 1% hypoxia-induced […] mRNA expression at 0.1 uM measured over 8 hrs by RT-PCR analysis; format: cell-based
SK-BR-3 [21] = assay: Induction of apoptosis in human SK-BR-3 cells assessed as early apoptotic cells after 48 hrs by annexin v/PI-staining based flow cytometry (reference value: 3.3%); format: functional, cell-based
SK-BR-3 [22] = assay: Induction of apoptosis in human SK-BR-3 cells assessed as live cells at 0.5 uM after 48 hrs by annexin v/PI-staining based flow cytometry (reference value: 89.2%); format: functional
[23] = molecular target: T2, Heat shock protein HSP90 (Homo sapiens); assay: Inhibition of Hsp90 in human SK-BR-3 cells assessed as upregulation of Hsp70 at 0.02 to 0.2 uM after 24 hrs by Western blot analysis; format: cell-based
PC-3 = assay: Antiproliferative activity against human PC3 cells assessed as growth inhibition by MTT assay; format: functional, cell-based
SK-BR-3 [24] = assay: Induction of apoptosis in human SK-BR-3 cells after 48 hrs by annexin V/PI-staining based flow cytometry; format: functional, cell-based
[25] = molecular target: T1, Heat shock protein HSP 90-alpha; assay: Binding affinity to human recombinant full length Hsp90alpha assessed as change in melting temperature at 1 mM by fluorescence assay
HT-29 = assay: Antiproliferative activity against human HT-29 cells assessed as growth inhibition by MTT assay; format: functional, cell-based
[26] = molecular target: T2, Heat shock protein HSP90 (Homo sapiens); assay: Inhibition of Hsp90 in human SK-BR-3 cells assessed as downregulation of ERK1/2 after 24 hrs by Western blot analysis; format: cell-based
SK-BR-3 [27] = assay: Induction of cell morphological changes in human SK-BR-3 cells assessed as cell distortion at 0.25 to 1 uM after 48 hrs by DAPI staining-based fluorescence analysis; format: functional
SK-BR-3 [28] = assay: Induction of apoptosis in human SK-BR-3 cells assessed as early apoptotic cells at 0.25 uM after 48 hrs by annexin v/PI-staining based flow cytometry (reference value: 3.3%); format: functional
SK-BR-3 [29] = assay: Induction of apoptosis in human SK-BR-3 cells assessed as dead cells after 48 hrs by annexin v/PI-staining based flow cytometry (Rvb =1.3%); format: functional, cell-based
SK-BR-3 [30] = assay: Induction of apoptosis in human SK-BR-3 cells assessed as late apoptotic cells at 0.5 uM after 48 hrs by annexin v/PI-staining based flow cytometry (reference value: 6.2%); format: functional
[31] = molecular target: T2, Heat shock protein HSP90 (Homo sapiens); assay: Inhibition of Hsp90 in HUVEC assessed as repression of 1% hypoxia-induced Glut1 mRNA expression at 0.1 uM measured over 8 hrs by RT-PCR analysis; format: cell-based
SK-BR-3 [32] = assay: Induction of apoptosis in human SK-BR-3 cells assessed as early apoptotic cells at 0.5 uM after 48 hrs by annexin v/PI-staining based flow cytometry (reference value: 3.3%); format: functional
SK-BR-3 [33] = assay: Induction of apoptosis in human SK-BR-3 cells assessed as late apoptotic cells at 0.25 uM after 48 hrs by annexin v/PI-staining based flow cytometry (reference value: 6.2%); format: functional
SK-BR-3 [34] = assay: Induction of apoptosis in human SK-BR-3 cells assessed as dead cells at 1 uM after 48 hrs by annexin v/PI-staining based flow cytometry (Rvb =1.3%); format: functional
SK-BR-3 [35] = assay: Induction of apoptosis in human SK-BR-3 cells assessed as live cells at 0.25 uM after 48 hrs by annexin v/PI-staining based flow cytometry (reference value: 89.2%); format: functional
SK-BR-3 [36] = assay: Antiproliferative activity against human SK-BR-3 cells assessed as growth inhibition by MTT assay; format: functional, cell-based
HepG2 = assay: Antiproliferative activity against human HepG2 cells assessed as growth inhibition by MTT assay; format: functional, cell-based
SK-BR-3 [37] = assay: Induction of apoptosis in human SK-BR-3 cells assessed as early apoptotic cells at 1 uM after 48 hrs by annexin v/PI-staining based flow cytometry (reference value: 3.3%); format: functional
SK-BR-3 [38] = assay: Induction of apoptosis in human SK-BR-3 cells assessed as live cells at 1 uM after 48 hrs by annexin v/PI-staining based flow cytometry (reference value: 89.2%); format: functional
SK-BR-3 [39] = assay: Induction of apoptosis in human SK-BR-3 cells assessed as increase in caspase activity after 48 hrs by fluorimetric assay; format: functional, cell-based

Structure (SMILES): CC(C)=CCC12OC(C)(C)C3CC(C=C4C(=O)c5c(O)cc(O)cc5OC431)C2=O (centres undefined)
IC50 [1]: 22.4 µM

Structure (SMILES): COc1cccc2c1C(=O)C1=CC3CC4COC(CC=C(C)C)(C3=O)C14O2 (centres undefined)
IC50 [1]: 54.7 µM

Structure (SMILES): CC(=O)Oc1cccc2c1C(=O)C1=CC3CC4C(C)(C)OC(CC=C(C)C)(C3=O)C14O2 (centres undefined)
IC50 [1]: 42.4 µM

Structure (SMILES): C/C(=C\CC12OCC3CC(C=C4C(=O)c5c(O)cccc5OC431)C2=O)CO (centres undefined)
IC50 (MCF7): 2.89 µM
inhibition [2]: Active
Activity (SK-BR-3 [3]): Active
Activity (HUVEC [4]): Dose-dependent effect
Activity (SK-BR-3 [5]): Active
Kd [6]: 38 µM
Activity (SK-BR-3 [7]): Dose-dependent effect
ΔTm [8]: 2.12 °C
Activity (SK-BR-3 [9]): Dose-dependent effect
Activity (SK-BR-3 [10]): 35.7%
ΔTm [11]: 0.95 °C
Activity (SK-BR-3 [12]): 0.95%
Activity (SK-BR-3 [13]): Active
inhibition (HUVEC [14]): Active
inhibition [15]: Dose-dependent effect
Activity (SK-BR-3 [16]): Active
Activity (SK-BR-3 [17]): 2.35%
inhibition [18]: Dose-dependent effect
IC50 (A549): 3.25 µM
ΔTm [19]: 1.64 °C
inhibition [20]: Active
IC50 [1]: 3.68 µM
Activity (SK-BR-3 [21]): Dose-dependent effect
Activity (SK-BR-3 [22]): 59.58%
inhibition [23]: inactive
IC50 (PC-3): 2.16 µM
Activity (SK-BR-3 [24]): Dose-dependent effect
ΔTm [25]: 4.7 °C
IC50 (HT-29): 3.02 µM
inhibition [26]: Dose-dependent effect
Activity (SK-BR-3 [27]): Active
Activity (SK-BR-3 [28]): 7.5%
Activity (SK-BR-3 [29]): Dose-dependent effect
Activity (SK-BR-3 [30]): 21.45%
inhibition [31]: Active
Activity (SK-BR-3 [32]): 16.65%
Activity (SK-BR-3 [33]): 13.4%
Activity (SK-BR-3 [34]): 5.7%
Activity (SK-BR-3 [35]): 78.15%
IC50 (SK-BR-3 [36]): 1.92 µM
IC50 (HepG2): 3.34 µM
Activity (SK-BR-3 [37]): 8.6%
Activity (SK-BR-3 [38]): 50%
Activity (SK-BR-3 [39]): Dose-dependent effect

Structure (SMILES): CC(C)=CCC12OCC3CC(C=C4C(=O)c5c(O)cccc5OC431)C2=O (centres undefined)
IC50 [1]: 14.3 µM

Structure (SMILES): CCOC(=O)COc1cccc2c1C(=O)C1=CC3CC4C(C)(C)OC(CC=C(C)C)(C3=O)C14O2 (centres undefined)
IC50 [1]: 89.8 µM

The remaining lines, values ahead:

IC50 [1]: 43 µM
Structure (SMILES): C/C(=C\CC12OCC3CC(C1=O)C1OC14C(=O)c1c(O)cccc1OC324)CC(=O)O (centres undefined)

IC50 [1]: > 100 µM
Structure (SMILES): CC(C)=CCC12OC(C)(C)C3CC(C=C4C(=O)c5c(OCC(=O)O)cccc5OC431)C2=O (centres undefined)

IC50 [1]: 52.7 µM
Structure (SMILES): CC(=O)Oc1cccc2c1C(=O)C1=CC3CC4COC(CC=C(C)C)(C3=O)C14O2 (centres undefined)

IC50 [1]: 15.5 µM
Structure (SMILES): CC(C)=CCC12OC(C)(C)C3CC(C=C4C(=O)c5c(O)cccc5OC431)C2=O (centres undefined)

IC50 [1]: 8.52 µM
Structure (SMILES): C=CCC12OCC3CC(C=C4C(=O)c5c(O)cccc5OC431)C2=O (centres undefined)

Source: ChEMBL document CHEMBL4431352, “Structure-activity relationship of Garcinia xanthones analogues: Potent Hsp90 inhibitors with cytotoxicity and antiangiogenesis activity” (Bioorg Med Chem, 2016)
